# Measurements from patent publication US20220281848A1, “PYRAZOLE-SUBSTITUTED PYRROLIDINONES AS HERBICIDES” (FMC Corporation, priority 2019, published 2022).
# Test system: plants
# Assay: Test D pre-emergence, other plants of Tables D1 and D3
# Assay type: in vivo
# Settings: preemergent, 20 DAA
# Protocol: A formulation containing 50 g/L of the test chemical was prepared by dissolving the active ingredient in a mixture of organic solvents and emulsifier, details of which are provided in the table. This formulation was then mixed with a small, variable amount of acetone to aid dissolution, before addition of a 0.2% v/v aqueous solution of an adjuvant, as the aqueous diluent, to form an aqueous spray solution which contains a predetermined concentration of the active ingredient.
# This aqueous spray solution was then sprayed onto plants including maize and wheat that had been seed treated with a herbicide safener, after one day's cultivation (for pre-emergence) or after about 12 days' cultivation (for post-emergence). The plants were grown from seeds sown in standard soil, placed in a glasshouse under controlled conditions (at 24/18° C. or 20/16° C., day/night; 16 h light; 65% humidity). After spray application the plants were then grown in a glasshouse under the same conditions and watered twice daily. After 15 d for post-emergence and 20 DAA for pre-emergence the test was evaluated (100=total damage to plant; 0=no damage to plant).
structure (smiles),measurement,setting,value
CN1CC(c2cc(C(F)(F)F)n(C)n2)C(C(=O)Nc2ccc(F)c(F)c2F)C1=O (racemic) [Compound 17],"damage to plant (100=total damage to plant; 0=no damage to plant), ABUTH",rate 15,0
same,"damage to plant (100=total damage to plant; 0=no damage to plant), ABUTH",rate 30,0
same,"damage to plant (100=total damage to plant; 0=no damage to plant), ABUTH",rate 60,0
same,"damage to plant (100=total damage to plant; 0=no damage to plant), ABUTH",rate 130,0
same,"damage to plant (100=total damage to plant; 0=no damage to plant), ABUTH",rate 250,0
same,"damage to plant (100=total damage to plant; 0=no damage to plant), ABUTH",rate 500,10
same,"damage to plant (100=total damage to plant; 0=no damage to plant), AMARE",rate 15,0
same,"damage to plant (100=total damage to plant; 0=no damage to plant), AMARE",rate 30,0
same,"damage to plant (100=total damage to plant; 0=no damage to plant), AMARE",rate 60,0
same,"damage to plant (100=total damage to plant; 0=no damage to plant), AMARE",rate 130,0
same,"damage to plant (100=total damage to plant; 0=no damage to plant), AMARE",rate 250,0
same,"damage to plant (100=total damage to plant; 0=no damage to plant), AMARE",rate 500,0
same,"damage to plant (100=total damage to plant; 0=no damage to plant), BIDPI",rate 15,0
same,"damage to plant (100=total damage to plant; 0=no damage to plant), BIDPI",rate 30,0
same,"damage to plant (100=total damage to plant; 0=no damage to plant), BIDPI",rate 60,0
same,"damage to plant (100=total damage to plant; 0=no damage to plant), BIDPI",rate 130,0
same,"damage to plant (100=total damage to plant; 0=no damage to plant), BIDPI",rate 250,0
same,"damage to plant (100=total damage to plant; 0=no damage to plant), BIDPI",rate 500,0
same,"damage to plant (100=total damage to plant; 0=no damage to plant), BRAPL",rate 15,20
same,"damage to plant (100=total damage to plant; 0=no damage to plant), BRAPL",rate 30,60
same,"damage to plant (100=total damage to plant; 0=no damage to plant), BRAPL",rate 60,80
same,"damage to plant (100=total damage to plant; 0=no damage to plant), BRAPL",rate 130,80
same,"damage to plant (100=total damage to plant; 0=no damage to plant), BRAPL",rate 250,80
same,"damage to plant (100=total damage to plant; 0=no damage to plant), BRAPL",rate 500,90
same,"damage to plant (100=total damage to plant; 0=no damage to plant), CYPES",rate 15,0
same,"damage to plant (100=total damage to plant; 0=no damage to plant), CYPES",rate 30,0
same,"damage to plant (100=total damage to plant; 0=no damage to plant), CYPES",rate 60,0
same,"damage to plant (100=total damage to plant; 0=no damage to plant), CYPES",rate 130,0
same,"damage to plant (100=total damage to plant; 0=no damage to plant), CYPES",rate 250,0
same,"damage to plant (100=total damage to plant; 0=no damage to plant), CYPES",rate 500,0
same,"damage to plant (100=total damage to plant; 0=no damage to plant), DIGSA",rate 15,30
same,"damage to plant (100=total damage to plant; 0=no damage to plant), DIGSA",rate 30,90
same,"damage to plant (100=total damage to plant; 0=no damage to plant), DIGSA",rate 60,90
same,"damage to plant (100=total damage to plant; 0=no damage to plant), DIGSA",rate 130,90
same,"damage to plant (100=total damage to plant; 0=no damage to plant), DIGSA",rate 250,90
same,"damage to plant (100=total damage to plant; 0=no damage to plant), DIGSA",rate 500,90
same,"damage to plant (100=total damage to plant; 0=no damage to plant), ECHCG",rate 15,0
same,"damage to plant (100=total damage to plant; 0=no damage to plant), ECHCG",rate 30,90
same,"damage to plant (100=total damage to plant; 0=no damage to plant), ECHCG",rate 60,90
same,"damage to plant (100=total damage to plant; 0=no damage to plant), ECHCG",rate 130,90
same,"damage to plant (100=total damage to plant; 0=no damage to plant), ECHCG",rate 250,100
same,"damage to plant (100=total damage to plant; 0=no damage to plant), ECHCG",rate 500,100
same,"damage to plant (100=total damage to plant; 0=no damage to plant), ELEIN",rate 15,0
same,"damage to plant (100=total damage to plant; 0=no damage to plant), ELEIN",rate 30,0
same,"damage to plant (100=total damage to plant; 0=no damage to plant), ELEIN",rate 60,0
same,"damage to plant (100=total damage to plant; 0=no damage to plant), ELEIN",rate 130,0
same,"damage to plant (100=total damage to plant; 0=no damage to plant), ELEIN",rate 250,0
same,"damage to plant (100=total damage to plant; 0=no damage to plant), ELEIN",rate 500,0
same,"damage to plant (100=total damage to plant; 0=no damage to plant), EPHHL",rate 15,0
same,"damage to plant (100=total damage to plant; 0=no damage to plant), EPHHL",rate 30,0
same,"damage to plant (100=total damage to plant; 0=no damage to plant), EPHHL",rate 60,0
same,"damage to plant (100=total damage to plant; 0=no damage to plant), EPHHL",rate 130,0
same,"damage to plant (100=total damage to plant; 0=no damage to plant), EPHHL",rate 250,0
same,"damage to plant (100=total damage to plant; 0=no damage to plant), EPHHL",rate 500,10
same,"damage to plant (100=total damage to plant; 0=no damage to plant), GLXMA",rate 15,0
same,"damage to plant (100=total damage to plant; 0=no damage to plant), GLXMA",rate 30,0
same,"damage to plant (100=total damage to plant; 0=no damage to plant), GLXMA",rate 60,0
same,"damage to plant (100=total damage to plant; 0=no damage to plant), GLXMA",rate 130,0
same,"damage to plant (100=total damage to plant; 0=no damage to plant), GLXMA",rate 250,0
same,"damage to plant (100=total damage to plant; 0=no damage to plant), GLXMA",rate 500,0
same,"damage to plant (100=total damage to plant; 0=no damage to plant), IPOHE",rate 15,0
same,"damage to plant (100=total damage to plant; 0=no damage to plant), IPOHE",rate 30,0
same,"damage to plant (100=total damage to plant; 0=no damage to plant), IPOHE",rate 60,0
same,"damage to plant (100=total damage to plant; 0=no damage to plant), IPOHE",rate 130,0
same,"damage to plant (100=total damage to plant; 0=no damage to plant), IPOHE",rate 250,0
same,"damage to plant (100=total damage to plant; 0=no damage to plant), IPOHE",rate 500,0
same,"damage to plant (100=total damage to plant; 0=no damage to plant), ORYSA",rate 15,0
same,"damage to plant (100=total damage to plant; 0=no damage to plant), ORYSA",rate 30,0
same,"damage to plant (100=total damage to plant; 0=no damage to plant), ORYSA",rate 60,0
same,"damage to plant (100=total damage to plant; 0=no damage to plant), ORYSA",rate 130,0
same,"damage to plant (100=total damage to plant; 0=no damage to plant), ORYSA",rate 250,0
same,"damage to plant (100=total damage to plant; 0=no damage to plant), ORYSA",rate 500,0
same,"damage to plant (100=total damage to plant; 0=no damage to plant), PANMI",rate 15,0
same,"damage to plant (100=total damage to plant; 0=no damage to plant), PANMI",rate 30,0
same,"damage to plant (100=total damage to plant; 0=no damage to plant), PANMI",rate 60,0
same,"damage to plant (100=total damage to plant; 0=no damage to plant), PANMI",rate 130,0
same,"damage to plant (100=total damage to plant; 0=no damage to plant), PANMI",rate 250,0
same,"damage to plant (100=total damage to plant; 0=no damage to plant), PANMI",rate 500,0
same,"damage to plant (100=total damage to plant; 0=no damage to plant), SETFA",rate 15,0
same,"damage to plant (100=total damage to plant; 0=no damage to plant), SETFA",rate 30,80
same,"damage to plant (100=total damage to plant; 0=no damage to plant), SETFA",rate 60,90
same,"damage to plant (100=total damage to plant; 0=no damage to plant), SETFA",rate 130,90
same,"damage to plant (100=total damage to plant; 0=no damage to plant), SETFA",rate 250,90
same,"damage to plant (100=total damage to plant; 0=no damage to plant), SETFA",rate 500,90
same,"damage to plant (100=total damage to plant; 0=no damage to plant), SORVU",rate 15,0
same,"damage to plant (100=total damage to plant; 0=no damage to plant), SORVU",rate 30,0
same,"damage to plant (100=total damage to plant; 0=no damage to plant), SORVU",rate 60,0
same,"damage to plant (100=total damage to plant; 0=no damage to plant), SORVU",rate 130,0
same,"damage to plant (100=total damage to plant; 0=no damage to plant), SORVU",rate 250,0
